Laboratory results taken from US6355799B1, “Substituted benzene compounds, process for their preparation, and herbicidal and defoliant compositions containing them” (ISK Americas Incorporated, priority 1997, dated 2002).

Legend:
Type in all cases: in vivo
[1] = system: redroot pigweed (Amaranthus retroflexus, AMARE); test: Pre-emerge test, greenhouse herbicide activity screening; details: phytotoxicity rating 0-100, 14 days after application
Summary of the method: (§1)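 Plants grown in 10 cm pots of sandy loam mix received acetone-dissolved compounds through a moving flat-fan nozzle. Doses ranged from 15 to 1000 g ai/ha. Pre-emerge pots were seeded one day earlier, post-emerge pots 8–21 days earlier. Fourteen days on, each pot was graded 0–100 for damage.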

[2] = system: barnyardgrass (Echinochloa crus-galli, ECHCG); test: as above; details: phytotoxicity rating 0-100, 14 days after application
Summary of the method: as §1

[3] = system: green foxtail (Setaria viridis, SETVI); test: as above; details: phytotoxicity rating 0-100, 14 days after application
Summary of the method: as §1

[4] = system: ivyleaf morningglory (Ipomoea hederacea, IPOHE); test: as above; details: phytotoxicity rating 0-100, 14 days after application
Summary of the method: as §1

[5] = system: johnsongrass (Sorghum halepense, SORHA); test: as above; details: phytotoxicity rating 0-100, 14 days after application
Summary of the method: as §1

[6] = system: lambsquarters (Chenopodium album, CHEAL); test: as above; details: phytotoxicity rating 0-100, 14 days after application
Summary of the method: as §1

[7] = system: large crabgrass (Digitaria sanguinalis, DIGSA); test: as above; details: phytotoxicity rating 0-100, 14 days after application
Summary of the method: as §1

[8] = system: sicklepod (Cassia obtusifolia, CASOB); test: as above; details: phytotoxicity rating 0-100, 14 days after application
Summary of the method: as §1

[9] = system: velvetleaf (Abutilon theophrasti, ABUTH); test: as above; details: phytotoxicity rating 0-100, 14 days after application
Summary of the method: as §1

[10] = system: field corn (Zea mays L., var. Dekalb 535, CORN); test: Pre-emerge test, crop safety; details: crop damage rating 0-100, 14 days after application
Summary of the method: (§2)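 Herbicidal damage is scored 0 (none) to 100 (complete plant death) two weeks after a simulated field spray. Rates span 15–1000 g ai/ha, delivered in acetone at 187 l/ha. For post-emergence treatments, plants have 2–3 leaves and the spray carries 0.25% v/v non-ionic surfactant.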

[11] = system: upland rice (Oryza sp., var. Tebonnet, RICE); test: Pre-emerge test, crop safety; details: crop damage rating 0-100, 14 days after application
Summary of the method: as §2

[12] = system: barnyardgrass (Echinochloa crus-galli, ECHCG); test: Post-emerge test, greenhouse herbicide activity screening; details: post-emerge, 14 days after application, rating scale 0-100
Summary of the method: (§3)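 Rating: 0–100 visual injury, 14 DAA. Application: acetone, 187 l/ha, 15–1000 g ai/ha, flat-fan track sprayer with nozzle 40–45 cm above soil or canopy. Post-emerge runs used 0.25% v/v surfactant on 2–3 leaf plants.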

[13] = system: green foxtail (Setaria viridis, SETVI); test: as above; details: post-emerge, 14 days after application, rating scale 0-100
Summary of the method: as §3

[14] = system: ivyleaf morningglory (Ipomoea hederacea, IPOHE); test: as above; details: post-emerge, 14 days after application, rating scale 0-100
Summary of the method: as §3

[15] = system: johnsongrass (Sorghum halepense, SORHA); test: as above; details: post-emerge, 14 days after application, rating scale 0-100
Summary of the method: as §3

[16] = system: lambsquarters (Chenopodium album, CHEAL); test: as above; details: post-emerge, 14 days after application, rating scale 0-100
Summary of the method: as §3

[17] = system: large crabgrass (Digitaria sanguinalis, DIGSA); test: as above; details: post-emerge, 14 days after application, rating scale 0-100
Summary of the method: as §3

[18] = system: redroot pigweed (Amaranthus retroflexus, AMARE); test: as above; details: post-emerge, 14 days after application
Summary of the method: as §3

[19] = system: sicklepod (Cassia obtusifolia, CASOB); test: as above; details: post-emerge, 14 days after application, rating scale 0-100
Summary of the method: as §3

[20] = system: velvetleaf (Abutilon theophrasti, ABUTH); test: as above; details: post-emerge, 14 days after application, rating scale 0-100
Summary of the method: as §3

[21] = system: field corn (Zea mays L., var. Dekalb 535, CORN); test: Post-emerge test, crop safety; details: post-emerge, 14 days after application, rating scale 0-100
Summary of the method: (§4)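 Each test used a mechanized track sprayer delivering 187 l/ha of acetone solution at 15–1000 g ai/ha. Post-emerge foliage at 2–3 leaves was treated with added 0.25% v/v non-ionic surfactant and bottom-watered only. Injury was assessed on day 14, where 100 means total kill.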

[22] = system: upland rice (Oryza sp., var. Tebonnet, RICE); test: Post-emerge test, crop safety; details: post-emerge, 14 days after application, rating scale 0-100
Summary of the method: as §4

[23] = 63 g ai/ha, rating scale 0-100 (0 no damage, 100 complete death)
[24] = 250 g ai/ha, rating scale 0-100

## COc1c(Cl)cc(F)c(-n2c(=O)cc(C(F)(F)F)n(C)c2=O)c1NC(=O)OCc1ccccc1[N+](=O)[O-] [4-34]
[1]; 63 g ai/ha
  Pre-emerge Herbicidal Activity AMARE: 100
[1]; 250 g ai/ha
  Pre-emerge Herbicidal Activity AMARE: 100
[2]; 63 g ai/ha
  Pre-emerge Herbicidal Activity ECHCG: 50
[2]; 250 g ai/ha
  Pre-emerge Herbicidal Activity ECHCG: 90
[3]; 63 g ai/ha
  Pre-emerge Herbicidal Activity SETVI: 80
[3]; 250 g ai/ha
  Pre-emerge Herbicidal Activity SETVI: 100
[4]; 63 g ai/ha
  Pre-emerge Herbicidal Activity IPOHE: 30
[4]; 250 g ai/ha
  Pre-emerge Herbicidal Activity IPOHE: 80
[5]; 63 g ai/ha
  Pre-emerge Herbicidal Activity SORHA: 40
[5]; 250 g ai/ha
  Pre-emerge Herbicidal Activity SORHA: 80
[6]; 63 g ai/ha
  Pre-emerge Herbicidal Activity CHEAL: 100
[6]; 250 g ai/ha
  Pre-emerge Herbicidal Activity CHEAL: 100
[7]; 63 g ai/ha
  Pre-emerge Herbicidal Activity DIGSA: 90
[7]; 250 g ai/ha
  Pre-emerge Herbicidal Activity DIGSA: 95
[8]; 63 g ai/ha
  Pre-emerge Herbicidal Activity CASOB: 40
[8]; 250 g ai/ha
  Pre-emerge Herbicidal Activity CASOB: 95
[9]; 63 g ai/ha
  Pre-emerge Herbicidal Activity ABUTH: 100
[9]; 250 g ai/ha
  Pre-emerge Herbicidal Activity ABUTH: 100
[10]; 63 g ai/ha
  Pre-emerge Herbicidal Activity CORN: 10
[10]; 250 g ai/ha
  Pre-emerge Herbicidal Activity CORN: 90
[11]; 63 g ai/ha
  Pre-emerge Herbicidal Activity RICE: 50
[11]; 250 g ai/ha
  Pre-emerge Herbicidal Activity RICE: 95
[12]; 63 g ai/ha
  phytotoxicity rating ECHCG: 20
[12]; 250 g ai/ha
  phytotoxicity rating ECHCG: 50
[13]; 63 g ai/ha
  phytotoxicity rating SETVI: 50
[13]; 250 g ai/ha
  phytotoxicity rating SETVI: 75
[14]; 63 g ai/ha
  phytotoxicity rating IPOHE: 100
[14]; 250 g ai/ha
  phytotoxicity rating IPOHE: 90
[15]; 63 g ai/ha
  phytotoxicity rating SORHA: 30
[15]; 250 g ai/ha
  phytotoxicity rating SORHA: 30
[16]; 63 g ai/ha
  phytotoxicity rating CHEAL: 100
[16]; 250 g ai/ha
  phytotoxicity rating CHEAL: 100
[17]; 63 g ai/ha
  phytotoxicity rating DIGSA: 35
[17]; 250 g ai/ha
  phytotoxicity rating DIGSA: 60
[18]; [23]
  phytotoxicity rating AMARE: 100
[18]; [24]
  phytotoxicity rating AMARE: 100
[19]; 63 g ai/ha
  phytotoxicity rating CASOB: 90
[19]; 250 g ai/ha
  phytotoxicity rating CASOB: 100
[20]; 63 g ai/ha
  phytotoxicity rating ABUTH: 100
[20]; 250 g ai/ha
  phytotoxicity rating ABUTH: 100
[21]; 63 g ai/ha
  phytotoxicity rating CORN (crop damage): 25
[21]; 250 g ai/ha
  phytotoxicity rating CORN (crop damage): 50
[22]; 63 g ai/ha
  phytotoxicity rating RICE (crop damage): 40
[22]; 250 g ai/ha
  phytotoxicity rating RICE (crop damage): 80

## Cc1ccc(OC(=O)Nc2c(C)c(Cl)cc(F)c2-n2c(=O)cc(C(F)(F)F)n(C)c2=O)cc1C [4-53]
[1]; 63 g ai/ha
  Pre-emerge Herbicidal Activity AMARE: 100
[1]; 250 g ai/ha
  Pre-emerge Herbicidal Activity AMARE: 100
[2]; 63 g ai/ha
  Pre-emerge Herbicidal Activity ECHCG: 10
[2]; 250 g ai/ha
  Pre-emerge Herbicidal Activity ECHCG: 85
[3]; 63 g ai/ha
  Pre-emerge Herbicidal Activity SETVI: 80
[3]; 250 g ai/ha
  Pre-emerge Herbicidal Activity SETVI: 100
[4]; 63 g ai/ha
  Pre-emerge Herbicidal Activity IPOHE: 30
[4]; 250 g ai/ha
  Pre-emerge Herbicidal Activity IPOHE: 80
[5]; 63 g ai/ha
  Pre-emerge Herbicidal Activity SORHA: 30
[5]; 250 g ai/ha
  Pre-emerge Herbicidal Activity SORHA: 85
[6]; 63 g ai/ha
  Pre-emerge Herbicidal Activity CHEAL: 100
[6]; 250 g ai/ha
  Pre-emerge Herbicidal Activity CHEAL: 100
[7]; 63 g ai/ha
  Pre-emerge Herbicidal Activity DIGSA: 40
[7]; 250 g ai/ha
  Pre-emerge Herbicidal Activity DIGSA: 100
[8]; 63 g ai/ha
  Pre-emerge Herbicidal Activity CASOB: 20
[8]; 250 g ai/ha
  Pre-emerge Herbicidal Activity CASOB: 60
[9]; 63 g ai/ha
  Pre-emerge Herbicidal Activity ABUTH: 100
[9]; 250 g ai/ha
  Pre-emerge Herbicidal Activity ABUTH: 100
[10]; 63 g ai/ha
  Pre-emerge Herbicidal Activity CORN: 0
[10]; 250 g ai/ha
  Pre-emerge Herbicidal Activity CORN: 25
[11]; 63 g ai/ha
  Pre-emerge Herbicidal Activity RICE: 10
[11]; 250 g ai/ha
  Pre-emerge Herbicidal Activity RICE: 50
[12]; 63 g ai/ha
  phytotoxicity rating ECHCG: 0
[12]; 250 g ai/ha
  phytotoxicity rating ECHCG: 60
[13]; 63 g ai/ha
  phytotoxicity rating SETVI: 10
[13]; 250 g ai/ha
  phytotoxicity rating SETVI: 70
[14]; 63 g ai/ha
  phytotoxicity rating IPOHE: 100
[14]; 250 g ai/ha
  phytotoxicity rating IPOHE: 100
[15]; 63 g ai/ha
  phytotoxicity rating SORHA: 0
[15]; 250 g ai/ha
  phytotoxicity rating SORHA: 40
[16]; 63 g ai/ha
  phytotoxicity rating CHEAL: 60
[16]; 250 g ai/ha
  phytotoxicity rating CHEAL: 90
[17]; 63 g ai/ha
  phytotoxicity rating DIGSA: 0
[17]; 250 g ai/ha
  phytotoxicity rating DIGSA: 40
[18]; [23]
  phytotoxicity rating AMARE: 70
[18]; [24]
  phytotoxicity rating AMARE: 100
[19]; 63 g ai/ha
  phytotoxicity rating CASOB: 30
[19]; 250 g ai/ha
  phytotoxicity rating CASOB: 90
[20]; 63 g ai/ha
  phytotoxicity rating ABUTH: 100
[20]; 250 g ai/ha
  phytotoxicity rating ABUTH: 100
[21]; 63 g ai/ha
  phytotoxicity rating CORN (crop damage): 5
[21]; 250 g ai/ha
  phytotoxicity rating CORN (crop damage): 70
[22]; 63 g ai/ha
  phytotoxicity rating RICE (crop damage): 30
[22]; 250 g ai/ha
  phytotoxicity rating RICE (crop damage): 65
